The values below come from patent US12285475B2, “Bacterium capable of inducing TH1 cells” (priority 2016, dated 2025).

Read-outs that look alike come from different tables or passages of the source.

By MIC is commonly meant the least concentration at which growth counts as inhibited.

The subject of test [1] is Kp-2H7. Description: Kp-2H7 antibiotic susceptibility (MIC / growth in presence of antibiotics). Type of test: cell-based, Klebsiella pneumoniae. Conditions: for resistance of Kp-2H7 to antibiotic: FIG. 11 and Table 12, culture 37° C. 24 hours, absorbance 630 nm. On the procedure: The bacterium growths were determined based on the absorbance measurement at a wavelength of 630 nm.

For test [2], the system named is Ka-11E12. Description: Ka-11E12 antibiotic susceptibility (MIC / growth in presence of antibiotics). Type of test: cell-based, Klebsiella aeromobilis. Conditions: against Ka-11E12, Table 14. On the procedure:
FIG. 36 is a graph for analyzing the Ka-11E12 growths in the presence of antibiotics. Ka-11E12 was cultured in a 96-well plate in the presence of different concentrations of the antibiotics at 37° C. for 24 hours. The bacterium growths were determined based on the absorbance measurement at a wavelength of 630 nm. Each data represents the mean±standard deviation based on the results of at least three independent experiments.

[3] abbreviates: Klebsiella pneumoniae, 24 h, read-out: MIC.
The mark [4] stands for this setting: Klebsiella, 24 h, read-out: MIC.

Take `NCC[C@H](O)C(=O)N[C@@H]1C[C@H](N)[C@@H](O[C@H]2O[C@H](CN)[C@@H](O)[C@H](O)[C@H]2O)[C@H](O)[C@H]1O[C@H]1O[C@H](CO)[C@@H](O)[C@H](N)[C@H]1O` [Amikacin]: the MIC in test [1] (setting [3]) and in test [2] (setting [4]) was at most 8 mg/L in each case.
As to `CC1(C)S[C@@H]2[C@H](NC(=O)[C@H](N)c3ccccc3)C(=O)N2[C@H]1C(=O)O` [Ampicillin], the MIC in test [1] (setting [3]) and in test [2] (setting [4]) was over 16 mg/L throughout.
For `C[C@H]1[C@H](NC(=O)/C(=N\OC(C)(C)C(=O)O)c2csc(N)n2)C(=O)N1S(=O)(=O)O` [Aztreonam], the MIC in test [1] (setting [3]) and in test [2] (setting [4]) was at most 1 mg/L each time.
As to `N[C@@H](C(=O)N[C@@H]1C(=O)N2C(C(=O)O)=C(Cl)CS[C@H]12)c1ccccc1` [Cefaclor], the minimum inhibitory concentration (MIC) in test [1] (setting [3]) is at most 4 mg/L; in test [2] (setting [4]), 8 mg/L.
For `Cc1nnc(SCC2=C(C(=O)O)N3C(=O)[C@@H](NC(=O)Cn4cnnn4)[C@H]3SC2)s1` [Cefazolin] the same measures were 1 mg/L and over 4 mg/L.
Turning to `CO[C@@]1(NC(=O)CSCC#N)C(=O)N2C(C(=O)O)=C(CSc3nnnn3C)CS[C@@H]21` [Cefmetazole], the MIC is at most 8 mg/L in test [1] (setting [3]) and 16 mg/L in test [2] (setting [4]).
The matching figures for `CO/N=C(\C(=O)N[C@@H]1C(=O)N2C(C(=O)O)=C(COC(C)=O)CS[C@H]12)c1csc(N)n1` [Cefotaxime]: at most 0.5 mg/L and at most 0.5 mg/L.
Consider `CN(C)CCn1nnnc1SCC1=C(C(=O)O)N2C(=O)[C@@H](NC(=O)Cc3csc(N)n3)[C@H]2SC1` [Cefotiam], for which the MIC in test [1] (setting [3]) and in test [2] (setting [4]) was at most 0.5 mg/L in each case.
For the compound `CO/N=C(\C(=O)N[C@@H]1C(=O)N2C(C(=O)[O-])=C(C[n+]3cccc4c3CCC4)CS[C@H]12)c1csc(N)n1` [Cefpirome], the MIC in test [1] (setting [3]) and in test [2] (setting [4]) was at most 4 mg/L in each case.
Take `COCC1=C(C(=O)OC(C)OC(=O)OC(C)C)N2C(=O)[C@@H](NC(=O)/C(=N\OC)c3csc(N)n3)[C@H]2SC1` (some centres unmarked) [Cefpodoxime-Proxetil]: the minimum inhibitory concentration (MIC) in test [1] (setting [3]) and in test [2] (setting [4]) was at most 1 mg/L in each case.
For `CC(C)(O/N=C(\C(=O)N[C@@H]1C(=O)N2C(C(=O)[O-])=C(C[n+]3ccccc3)CS[C@H]12)c1csc(N)n1)C(=O)O` [Ceftazidime], the minimal inhibitory concentration (MIC) in test [1] (setting [3]) and in test [2] (setting [4]) was at most 1 mg/L in each case.
Consider `CO[C@@]1(NC(=O)CSC(F)F)C(=O)N2C(C(=O)O)=C(CSc3nnnn3CCO)CO[C@@H]21` [Flomoxef], for which the minimal inhibitory concentration (MIC) in test [1] (setting [3]) and in test [2] (setting [4]) was at most 8 mg/L throughout.
As to `C[C@@H]1O[C@@H]1P(=O)(O)O` [Fosfomycin], the MIC in test [1] (setting [3]) and in test [2] (setting [4]) was 16 mg/L throughout.
For the compound `C[C@H]1COc2c(N3CCN(C)CC3)c(F)cc3c(=O)c(C(=O)O)cn1c23` [Levofloxacin], the MIC in test [1] (setting [3]) and in test [2] (setting [4]) was at most 1 mg/L throughout.
As to `C[C@@H](O)[C@H]1C(=O)N2C(C(=O)O)=C(S[C@@H]3CN[C@H](C(=O)N(C)C)C3)[C@H](C)[C@H]12` [Meropenem], the minimal inhibitory concentration (MIC) in test [1] (setting [3]) and in test [2] (setting [4]) was at most 0.25 mg/L throughout.
On to `CN(C)c1ccc(O)c2c1C[C@H]1C[C@H]3[C@H](N(C)C)C(O)=C(C(N)=O)C(=O)[C@@]3(O)C(O)=C1C2=O` [Minocycline], for which the minimal inhibitory concentration (MIC) in test [1] (setting [3]) and in test [2] (setting [4]) was at most 2 mg/L throughout.
Consider `CCN1CCN(C(=O)N[C@@H](C(=O)N[C@@H]2C(=O)N3[C@@H]2SC(C)(C)[C@@H]3C(=O)O)c2ccccc2)C(=O)C1=O` [Piperacillin], for which the MIC in test [1] (setting [3]) and in test [2] (setting [4]) was at most 8 mg/L each time.
As to `Cc1ncc([N+](=O)[O-])n1CCO` [metronidazole], the “resistance of Kp-2H7 to antibiotic” value in test [1] is “resistances”.
Regarding `CN[C@@H]1[C@H](O)[C@H](NC)[C@H]2O[C@@]3(O)C(=O)C[C@@H](C)O[C@H]3O[C@@H]2[C@H]1O` [spectinomycin], the “resistance of Kp-2H7 to antibiotic” value in test [1] is reported as “resistances”.
Same read-out and setting: for `CC[C@H]1OC(=O)C[C@@H](O)[C@H](C)[C@@H](O[C@@H]2O[C@H](C)[C@@H](O[C@H]3C[C@@](C)(O)[C@@H](O)[C@H](C)O3)[C@H](N(C)C)[C@H]2O)[C@@H](CC=O)C[C@@H](C)C(=O)/C=C/C(C)=C/[C@@H]1CO[C@@H]1O[C@H](C)[C@@H](O)[C@@H](OC)[C@H]1OC` [tylosin] the value was “resistances”.
Turning to Amoxicillin/Clavulanate, the MIC in test [1] (against Kp-2H7, Table 12) was at most 4 mg/L; in test [2], over 16 mg/L.
The matching figures for Gentamicin: at most 2 mg/L and at most 2 mg/L.
Imipenem/Cilastatin: the MIC in test [1] and in test [2] was at most 0.25 mg/L each time.
Turning to Sulbactam/Cefoperazone, the minimal inhibitory concentration (MIC) is at most 4 mg/L in test [1] (against Kp-2H7, Table 12) and at most 4 mg/L in test [2].
As for Sulfamethoxazole-Trimethoprim, the minimum inhibitory concentration (MIC) is at most 20 mg/L in test [1] (against Kp-2H7, Table 12) and at most 20 mg/L in test [2].
